{"source": "patent US11590129B2", "about": "“Combination therapy with an antitumor alkaloid” (PHARMA MAR, S.A., priority 2010, dated 2023)", "key": {"[1]": {"system": "A549 human lung carcinoma cell line", "experiment": "MTT cytotoxicity assay in A549 cells: IC50 of single agents and combinations with PM01183", "assay_type": "cell-based", "experimental": "(§1) Additional serial dilutions were prepared in serum-free culture medium to achieve a final 4× concentration. Aliquots of 50 μL of each diluted compound were added per well.\nA549 was the human lung carcinoma cell line selected for this assay.\n(§2) a. […] Briefly, cells were harvested and seeded in 96 well microtiter plates at a density of 5,000 cells in 150 μL of culture medium and incubated for 24 hours in drug-free medium before treatment with vehicle alone or test compounds for 72 h.\n(§3) The cytotoxic effect was measured by the MTT reduction assay, in which 3-(4,5-Dimethylthiazol-2-yl)-2,5-diphenyltetrazolium bromide, a tetrazole, which is reduced to purple formazan in the mitochondria of living cells, was used. MTT (50 μL of 1 mg/mL stock solution) was added to the wells and incubated for 8 hours at 37° C. until formazan crystals were formed. After gently removing the culture medium, DMSO was added to dissolve the insoluble purple formazan product into a colored solution. […] Results were expressed as percentage of control cell growth.\n(§4) b. In a second set of assays, A549 human tumor cells were incubated with PM01183 in combination with each of the agents mentioned above.\n(§5) As a visual aid, response values were plotted on a scatter plot with dose ratios given on the x-axis and % response values on the y-axis. […] In cases where response values at the two endpoints were approximately equivalent, points lying above or below this predicted line of additivity could be interpreted as representing antagonistic or synergistic drug interaction, respectively."}, "[2]": {"system": "A673 human rhabdomyosarcoma cell line", "experiment": "cells", "experimental": "as §2, §3, §4, §5, §1\nA673 was the human rhabdomyosarcoma cell line selected for this assay."}, "[3]": {"system": "SK-MEL-2 human melanoma cell line", "experiment": "cells", "experimental": "as §2, §3, §4, §5, §1\nSK-MEL-2 was the human melanoma cell line selected for this assay."}, "[4]": {"system": "PC-3 human prostate cancer cell line", "experiment": "cells", "experimental": "as §2, §3, §4, §5, §1\nPC-3 was the human prostate adenocarcinome cell line selected for this assay."}, "[5]": {"system": "IGROV-1 human ovarian adenocarcinoma cell line", "experiment": "cells", "experimental": "as §2, §3, §4, §5, §1\nIGROV-1 was the human ovarian adenocarcinoma cell line selected for this assay."}, "[6]": {"system": "MDA-MB-231 human breast adenocarcinoma cell line", "experiment": "cells", "experimental": "as §2, §3, §4, §5, §1"}, "[7]": {"system": "RXF-393 human kidney carcinoma cell line", "experiment": "cells", "experimental": "as §2, §3, §4, §5, §1"}, "[8]": {"system": "HT-29 human colon adenocarcinoma cell line", "experiment": "cells", "experimental": "as §2, §3, §4, §5, §1\nHT-29 was the human colon adenocarcinoma cell line selected for this assay."}, "[9]": {"system": "HGC-27 human gastric carcinoma cell line", "experiment": "cells", "experimental": "as §2, §3, §4, §5, §1\nHGC-27 was the human gastric carcinoma cell line selected for this assay."}, "[10]": {"system": "U87-MG human glioblastoma cell line", "experiment": "cells", "experimental": "as §2, §3, §4, §5, §1\nU87-MG was the human glioblastoma cell line selected for this assay."}, "HT1080 tumors": {"system": "HT1080 tumors", "experiment": "Human fibrosarcoma (HT1080) orthotopically implanted in athymic nude mice, total diameter (tumor+leg) % T/C", "assay_type": "in vivo", "experimental": "Female athymic nude mice (Harlan Laboratories Models, S.L. (Barcelona, Spain) were utilized for all experiments. Animals were housed in individually ventilated cages, up to ten per cage in a 12-hour light-dark cycle at 21-23° C. and 40-60% humidity. The mice were allowed free access to irradiated standard rodent diet and sterilized water. Animals were acclimated for at least 5 days prior to tumor implantation with a tumor cell suspension.\nHT1080 cells were grown at 37° C. with 5% CO2 in Minimum Essential Medium Eagle (MEME). Each animal was orthotopically implanted into gastroecnemius muscle by an intramuscular injection using 26G needle and a 1 cc syringe, with 5×10^6 HT1080 cells, from in vitro passage 9, suspended in serum free medium, without antibiotics.\nTotal diameter (tumor+leg) measurements were determined by using digital caliper (Fowler Sylvac, S235PAT). This total diameter and animal body weights were measured 2-3 times per week starting from the first day of treatment.\nTreatment tolerability was assessed by monitoring body weight evolution, clinical signs as well as evidences of local damage in the injection site.\nPM01183 was provided in the form of vials of lyophilized PM01183 cake which was reconstituted with water for infusion to a concentration of 0.2 mg/mL. The PM01183 stock solution was further diluted in 5% glucose solution for injection to the dosing formulation concentrations. Dacarbazine was provided in the form of a solution prepared by diluting the product with 5% glucose solution for injection to the target final concentration.\nDose level groups were administered either as single agents or in combination.\nComparison of the median total diameter (tumor+leg) in the treatment groups (T) to the median total diameter (tumor+leg) in the control group (T/C×100%) was used for evaluation of the antitumor efficacy."}, "[11]": {"system": "PANC-1 human pancreatic carcinoma cell line", "experiment": "cells", "experimental": "as §2, §3, §4, §5, §1\nPANC-1 was the human pancreatic carcinoma cell line selected for this assay."}, "[12]": {"system": "HepG2 human hepatocellular liver carcinoma cell line", "experiment": "MTT cytotoxicity assay in HepG2 cells: IC50 of single agents and combinations with PM01183", "assay_type": "cell-based", "experimental": "as §2, §3, §4, §5, §1\nHepG2 was the human hepatocellular liver carcinoma cell line selected for this assay."}}, "note": "Read-outs that look alike come from different tables or passages of the source.", "data": [{"smiles": "CO[C@@]12[C@H](COC(N)=O)C3=C(C(=O)C(C)=C(N)C3=O)N1C[C@@H]1N[C@@H]12", "note": "[Mitomycin C, mitomycin C]", "values": [{"measurement": "IC50", "setting": "[1]; read-out: IC50", "value": 249, "unit": "µM"}, {"measurement": "IC50", "setting": "[2]", "value": 2.99, "unit": "µM"}, {"measurement": "IC50", "setting": "[3]", "value": 0.9, "unit": "µM"}, {"measurement": "IC50", "setting": "[4]", "value": 10, "unit": "µM"}, {"measurement": "IC50", "setting": "[5]", "value": 3, "unit": "µM"}, {"measurement": "IC50", "setting": "[6]", "value": 2, "unit": "µM"}, {"measurement": "IC50", "setting": "[7]", "value": 9, "unit": "µM"}, {"measurement": "IC50", "setting": "[8]", "value": 2, "unit": "µM"}]}, {"smiles": "CN(C)/N=N/c1[nH]cnc1C(N)=O", "note": "[Dacarbazine, dacarbazine]", "values": [{"measurement": "IC50", "setting": "[1]; Homo sapiens, A549, 72 h", "value": 600, "unit": "µM"}, {"measurement": "IC50", "setting": "[2]; Homo sapiens, A673, 72 h", "value": 300, "unit": "µM"}, {"measurement": "IC50", "setting": "[3]; Homo sapiens, SK-MEL-2, 72 h", "value": 630, "unit": "µM"}, {"measurement": "IC50", "setting": "[9]; Homo sapiens, HGC-27, 72 h", "value": 346, "unit": "µM"}, {"measurement": "IC50", "setting": "[5]; Homo sapiens, IGROV-1, 72 h", "value": 398, "unit": "µM"}, {"measurement": "IC50", "setting": "[6]; Homo sapiens, MDA-MB-231, 72 h", "value": 19.2, "unit": "µM"}, {"measurement": "IC50", "setting": "[7]; Homo sapiens, RXF 393, 72 h", "value": 794, "unit": "µM"}, {"measurement": "IC50", "setting": "[8]; Homo sapiens, HT-29, 72 h", "value": 24.7, "unit": "µM"}, {"measurement": "IC50", "setting": "[10]; Homo sapiens, U-87 MG, 72 h", "value": 700, "unit": "µM"}, {"measurement": "% T/C on day 0", "setting": "HT1080 tumors; Dacarbazine 37.5 mg/kg", "value": 100, "unit": "%"}, {"measurement": "% T/C on day 2", "setting": "HT1080 tumors; Dacarbazine 37.5 mg/kg", "value": 51.8, "unit": "%"}, {"measurement": "% T/C on day 4", "setting": "HT1080 tumors; Dacarbazine 37.5 mg/kg", "value": 54.3, "unit": "%"}, {"measurement": "% T/C on day 7", "setting": "HT1080 tumors; Dacarbazine 37.5 mg/kg", "value": 65.4, "unit": "%"}, {"measurement": "% T/C on day 9", "setting": "HT1080 tumors; Dacarbazine 37.5 mg/kg", "value": 61.3, "unit": "%"}, {"measurement": "% T/C on day 11", "setting": "HT1080 tumors; Dacarbazine 37.5 mg/kg", "value": 47.9, "unit": "%"}, {"measurement": "% T/C on day 14", "setting": "HT1080 tumors; Dacarbazine 37.5 mg/kg", "value": 55.1, "unit": "%"}, {"measurement": "% T/C on day 16", "setting": "HT1080 tumors; Dacarbazine 37.5 mg/kg", "value": 62.1, "unit": "%"}, {"measurement": "% T/C on day 0", "setting": "HT1080 tumors; Dacarbazine 112.5 mg/kg", "value": 100, "unit": "%"}, {"measurement": "% T/C on day 2", "setting": "HT1080 tumors; Dacarbazine 112.5 mg/kg", "value": 48.1, "unit": "%"}, {"measurement": "% T/C on day 4", "setting": "HT1080 tumors; Dacarbazine 112.5 mg/kg", "value": 34.3, "unit": "%"}, {"measurement": "% T/C on day 7", "setting": "HT1080 tumors; Dacarbazine 112.5 mg/kg", "value": 53.8, "unit": "%"}, {"measurement": "% T/C on day 9", "setting": "HT1080 tumors; Dacarbazine 112.5 mg/kg", "value": 48.0, "unit": "%"}, {"measurement": "% T/C on day 11", "setting": "HT1080 tumors; Dacarbazine 112.5 mg/kg", "value": 37.5, "unit": "%"}, {"measurement": "% T/C on day 14", "setting": "HT1080 tumors; Dacarbazine 112.5 mg/kg", "value": 43.2, "unit": "%"}, {"measurement": "% T/C on day 16", "setting": "HT1080 tumors; Dacarbazine 112.5 mg/kg", "value": 53.2, "unit": "%"}, {"measurement": "% T/C on day 0", "setting": "HT1080 tumors; Dacarbazine 150.0 mg/kg", "value": 100, "unit": "%"}, {"measurement": "% T/C on day 2", "setting": "HT1080 tumors; Dacarbazine 150.0 mg/kg", "value": 40.7, "unit": "%"}, {"measurement": "% T/C on day 4", "setting": "HT1080 tumors; Dacarbazine 150.0 mg/kg", "value": 28.6, "unit": "%"}, {"measurement": "% T/C on day 7", "setting": "HT1080 tumors; Dacarbazine 150.0 mg/kg", "value": 30.8, "unit": "%"}, {"measurement": "% T/C on day 9", "setting": "HT1080 tumors; Dacarbazine 150.0 mg/kg", "value": 44.0, "unit": "%"}, {"measurement": "% T/C on day 11", "setting": "HT1080 tumors; Dacarbazine 150.0 mg/kg", "value": 37.5, "unit": "%"}, {"measurement": "% T/C on day 14", "setting": "HT1080 tumors; Dacarbazine 150.0 mg/kg", "value": 44.9, "unit": "%"}, {"measurement": "% T/C on day 16", "setting": "HT1080 tumors; Dacarbazine 150.0 mg/kg", "value": 57.3, "unit": "%"}]}, {"smiles": "O=C1[O][Pt]2([NH][C@@H]3CCCC[C@H]3[NH]2)[O]C1=O", "note": "[Oxaliplatin, oxaliplatin]", "values": [{"measurement": "IC50", "setting": "[1]; read-out: IC50", "value": 900, "unit": "µM"}, {"measurement": "IC50", "setting": "[2]", "value": 78, "unit": "µM"}, {"measurement": "IC50", "setting": "[4]", "value": 171, "unit": "µM"}, {"measurement": "IC50", "setting": "[11]", "value": 184, "unit": "µM"}, {"measurement": "IC50", "setting": "[9]", "value": 106, "unit": "µM"}, {"measurement": "IC50", "setting": "[5]", "value": 8.5, "unit": "µM"}, {"measurement": "IC50", "setting": "[12]; read-out: IC50", "value": 28, "unit": "µM"}, {"measurement": "IC50", "setting": "[6]", "value": 108, "unit": "µM"}, {"measurement": "IC50", "setting": "[8]", "value": 103, "unit": "µM"}, {"measurement": "IC50", "setting": "[10]", "value": 190, "unit": "µM"}]}, {"smiles": "CCc1c2c(nc3ccc(OC(=O)N4CCC(N5CCCCC5)CC4)cc13)-c1cc3c(c(=O)n1C2)COC(=O)[C@]3(O)CC", "note": "[Irinotecan, irinotecan]", "values": [{"measurement": "IC50", "setting": "[3]; Homo sapiens, SK-MEL-2, 72 h", "value": 18, "unit": "µM"}, {"measurement": "IC50", "setting": "[4]; Homo sapiens, PC-3, 72 h", "value": 70, "unit": "µM"}, {"measurement": "IC50", "setting": "[11]; Homo sapiens, PANC-1, 72 h", "value": 90, "unit": "µM"}, {"measurement": "IC50", "setting": "[9]; Homo sapiens, HGC-27, 72 h", "value": 4, "unit": "µM"}, {"measurement": "IC50", "setting": "[5]; Homo sapiens, IGROV-1, 72 h", "value": 10, "unit": "µM"}, {"measurement": "IC50", "setting": "[12]; Homo sapiens, HepG2, 72 h", "value": 1, "unit": "µM"}, {"measurement": "IC50", "setting": "[6]; Homo sapiens, MDA-MB-231, 72 h", "value": 8.5, "unit": "µM"}, {"measurement": "IC50", "setting": "[7]; Homo sapiens, RXF 393, 72 h", "value": 14, "unit": "µM"}, {"measurement": "IC50", "setting": "[8]; Homo sapiens, HT-29, 72 h", "value": 9, "unit": "µM"}, {"measurement": "IC50", "setting": "[10]; Homo sapiens, U-87 MG, 72 h", "value": 7.54, "unit": "µM"}]}]}
